Test systems include BT-549 breast; DU-145 prostate; HCC-2998 colon; KM12 colon; MALME-3M melanoma; NCI-H23 lung; NCI-H522 lung; OVCAR-4 ovarian; SF-295 CNS; UACC-257 melanoma.
Common to all, as to test: NCI-60 cell line screen, 48 h

SMILES strings stand for the structures.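 How tested: cells in 96-well plates exposed to compound for 48 hours at five concentrations. GI50 is the concentration that inhibits growth by half. TGI denotes the concentration required for complete inhibition of growth.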

Consider `O=C(Nc1ccccc1)Nc1ccc2cc3ccc(NC(=O)Nc4ccccc4)cc3nc2c1`, for which the GI50 in the experiment with BT-549 breast was 1.88 µM; in the experiment with DU-145 prostate it was 2.41 µM; in the experiment on HCC-2998 colon, 0.556 µM; in the experiment on KM12 colon it was 1.47 µM; in the experiment on MALME-3M melanoma, 1.54 µM; with NCI-H23 lung it was 1.48 µM. Further, the GI50 with NCI-H522 lung was 1.6 µM; in the experiment with OVCAR-4 ovarian, 1.12 µM; in the experiment on SF-295 CNS, 1.82 µM. For the same compound, the TGI with BT-549 breast amounted to 3.69 µM; in the experiment on DU-145 prostate, 7.49 µM; in the experiment on HCC-2998 colon, 1.91 µM; in the experiment on KM12 colon, 4.07 µM; in the experiment on MALME-3M melanoma it was 3.06 µM; in the experiment with NCI-H23 lung it was 3.3 µM. The TGI in the experiment on NCI-H522 lung stood at 3.35 µM; in the experiment on OVCAR-4 ovarian it was 2.42 µM; in the experiment on SF-295 CNS it was 3.72 µM.
On to `COc1cc(Nc2ncc(-c3ccccc3)o2)cc(OC)c1`, for which the GI50 in the experiment on BT-549 breast was over 25 µM; in the experiment on DU-145 prostate it was over 25 µM; with HCC-2998 colon, over 25 µM; in the experiment with KM12 colon, 1.59 µM; with MALME-3M melanoma it was over 25 µM; with NCI-H23 lung, over 25 µM. The GI50 in the experiment on NCI-H522 lung, in the experiment on OVCAR-4 ovarian, in the experiment with SF-295 CNS and with UACC-257 melanoma was over 25 µM each time. The TGI in the experiment with BT-549 breast, in the experiment with DU-145 prostate, in the experiment on HCC-2998 colon, in the experiment on KM12 colon, in the experiment with MALME-3M melanoma and with NCI-H23 lung was over 25 µM throughout. Further, the TGI in the experiment on NCI-H522 lung, in the experiment on OVCAR-4 ovarian, in the experiment on SF-295 CNS and in the experiment with UACC-257 melanoma was over 25 µM in each case.
`OC(COC(c1ccccc1)(c1ccccc1)c1ccccc1)C(O)CC1SCCS1` (configuration not stated): the TGI in the experiment with BT-549 breast came to 44.1 µM; in the experiment with DU-145 prostate it was 41.5 µM; in the experiment with KM12 colon it was 29.8 µM; with MALME-3M melanoma, 26.3 µM; in the experiment on NCI-H23 lung it was 40 µM; with UACC-257 melanoma, 51.8 µM.
As for `COc1ccc(C/C(=C(\C)c2ccc(OCCN3CCCC3)cc2)c2ccc(OCCN3CCCC3)cc2)cc1`, the GI50 in the experiment with BT-549 breast is 1.67 µM; in the experiment with DU-145 prostate it was 1.86 µM; with HCC-2998 colon it was 1.74 µM; in the experiment on KM12 colon it was 1.79 µM; in the experiment on MALME-3M melanoma, 1.67 µM; in the experiment with NCI-H23 lung, 3.67 µM. Further, the GI50 is 1.86 µM in the experiment with NCI-H522 lung, 2.08 µM with OVCAR-4 ovarian, 1.76 µM with SF-295 CNS and 1.76 µM in the experiment on UACC-257 melanoma. The TGI in the experiment on BT-549 breast came out at 3.25 µM; in the experiment on DU-145 prostate, 3.75 µM; in the experiment with HCC-2998 colon, 3.19 µM; in the experiment on KM12 colon, 3.52 µM; in the experiment on MALME-3M melanoma it was 3.26 µM; in the experiment with NCI-H23 lung, 14.1 µM. Besides, the TGI in the experiment on NCI-H522 lung was found to be 3.53 µM; with OVCAR-4 ovarian, 5.1 µM; in the experiment on SF-295 CNS, 3.47 µM; with UACC-257 melanoma, 3.31 µM.
Regarding `COCc1c(-c2cc3cc(C)cc(OC)c3s2)c2c(N)ncnn2c1CN1CCNC(=O)C1`, the GI50 with BT-549 breast is 1.03 µM; in the experiment on DU-145 prostate it was 4.99 µM; in the experiment with HCC-2998 colon, 8.37 µM; in the experiment with KM12 colon, 5.62 µM; with MALME-3M melanoma it was 2.83 µM; with NCI-H23 lung it was 4.45 µM. Further, the GI50 with NCI-H522 lung was 3.78 µM; in the experiment on OVCAR-4 ovarian, 1.88 µM; in the experiment on SF-295 CNS, 3.05 µM; with UACC-257 melanoma, 4.06 µM. The TGI with BT-549 breast is 17.1 µM; in the experiment on DU-145 prostate, over 100 µM; with HCC-2998 colon, over 100 µM; in the experiment on KM12 colon it was 77.6 µM; in the experiment on MALME-3M melanoma it was 17.3 µM; in the experiment on NCI-H23 lung, 70.7 µM. Besides, the TGI with NCI-H522 lung came to 25.3 µM; in the experiment with OVCAR-4 ovarian, 61.1 µM; in the experiment with SF-295 CNS, 21.5 µM; in the experiment on UACC-257 melanoma, 34.6 µM.
`COc1ncc(Nc2ncc([C@@H](C)N3CCN(S(C)(=O)=O)CC3)cc2-c2nc(C)nc(N)n2)cc1F`: the GI50 is 0.0219 µM in the experiment on BT-549 breast; 0.183 µM in the experiment on DU-145 prostate; 0.211 µM in the experiment on HCC-2998 colon; 1.33 µM with KM12 colon; 0.199 µM with MALME-3M melanoma; 3.86 µM in the experiment on NCI-H23 lung. The GI50 is 1.09 µM with NCI-H522 lung, 3.29 µM with OVCAR-4 ovarian, 0.0287 µM with SF-295 CNS and 0.0561 µM with UACC-257 melanoma. Further, the TGI was 6.23 µM in the experiment on BT-549 breast; over 100 µM with DU-145 prostate; over 100 µM in the experiment on HCC-2998 colon; over 100 µM with KM12 colon; 10.5 µM in the experiment with MALME-3M melanoma; over 100 µM in the experiment on NCI-H23 lung. Moreover, the TGI is 59.1 µM in the experiment on NCI-H522 lung, over 100 µM in the experiment with OVCAR-4 ovarian, 1.85 µM in the experiment on SF-295 CNS and over 79.4 µM with UACC-257 melanoma.
With `COc1ccc2c(c1OC)CO[C@@H]2[C@H]1c2c(cc3c(c2OC)OCO3)CCN1S(=O)(=O)c1cn(C)cn1`, the GI50 with BT-549 breast is 2.87 µM; with DU-145 prostate, 2.77 µM; in the experiment with HCC-2998 colon, 3.23 µM; with KM12 colon, 0.684 µM; in the experiment on MALME-3M melanoma, 0.77 µM; with NCI-H23 lung, 3.43 µM. The GI50 in the experiment on NCI-H522 lung is 0.427 µM; with OVCAR-4 ovarian, 6.65 µM; with SF-295 CNS it was 1.18 µM; in the experiment with UACC-257 melanoma it was 9.43 µM. Besides, the TGI in the experiment with BT-549 breast is 84.8 µM; in the experiment on DU-145 prostate it was 12 µM; with HCC-2998 colon, over 100 µM; with KM12 colon, over 100 µM; in the experiment with MALME-3M melanoma it was over 100 µM; in the experiment with NCI-H23 lung, over 100 µM. Besides, the TGI in the experiment with NCI-H522 lung was 8.32 µM; with OVCAR-4 ovarian it was over 100 µM; in the experiment with SF-295 CNS, over 100 µM; with UACC-257 melanoma it was over 100 µM.
On to `C[C@]12CC[C@H]3[C@@H](CC=C4C[C@@H](N5CCCC5)CC[C@@]43C)[C@@H]1C/C(=C\c1cccc(OCCN3CCOCC3)c1)[C@@H]2O`, for which the GI50 was 2.33 µM with BT-549 breast; 1.85 µM with DU-145 prostate; 5.02 µM with KM12 colon; 2.15 µM in the experiment on MALME-3M melanoma; 13.3 µM in the experiment on NCI-H23 lung; 8.21 µM in the experiment with NCI-H522 lung. For the same compound, the GI50 with OVCAR-4 ovarian is 13.3 µM; in the experiment with SF-295 CNS, 2.96 µM; in the experiment on UACC-257 melanoma, 2.55 µM. Besides, the TGI in the experiment on BT-549 breast is over 100 µM; in the experiment with DU-145 prostate, over 100 µM; with KM12 colon, over 100 µM; in the experiment with MALME-3M melanoma it was 6.11 µM; in the experiment with NCI-H23 lung, 41.6 µM; with NCI-H522 lung it was 29.7 µM. Further, the TGI was 55.2 µM in the experiment on OVCAR-4 ovarian, over 100 µM in the experiment on SF-295 CNS and 6.65 µM with UACC-257 melanoma.

Values taken from PubChem BioAssay (NCI).
